# Experimental data taken from patent US6395708B1, “Method for preventing diarrhea” (Novartis, A.G., priority 1999, dated 2002).
# Key:
# [1] = patients who experienced this side-effect during a previous course of chemotherapy; cited from earlier work
# [2] = prophylaxis against chemotherapy-induced diarrhea; cited from earlier work
# [3] = Octreotide prophylaxis of irinotecan-induced diarrhea in patients receiving irinotecan; format: in vivo; conditions: octreotide prophylactic treatment before or concurrent with irinotecan; octreotide acetate long-acting release formulation 10, 20 or 30 mg
# Protocol: In the prophylaxis of diarrhea according to the invention, octreotide may be administered simultaneously with irinotecan, or the compounds may be administered sequentially, in any desired order. Preferably octreotide is administered some days before the first irinotecan administration and subsequent octreotide administrations are before or simultaneous with irinotecan administration, the time of administration (dosing intervals) of octreotide depending on the preferred irinotecan-scheduled regimen. In a preferred embodiment of the present invention, octreotide acetate long-acting release formulation is administered 10-14 days prior to the first irinotecan dose. For example, when irinotecan is administered in a planned 6-week cycle, wherein irinotecan is given intravenously as a single-agent or in combination with other antineoplastic agents such as, e.g., cisplatin, 5-fluoruracil or others, over 30-90 minutes once weekly for 4 weeks followed by a 2-week rest period, octreotide acetate long-acting release formulation may be administered prior to the first irinotecan dose and again on Day 15 or Day 22 of this 6-week cycle. The octreotide acetate long-acting release formulation dosage is 10 mg, 20 mg or 30 mg at the time of each octreotide administration. […]
# [4] = cited from earlier work
# [5] = intensive, immediate application once diarrhea has started; cited from earlier work
Structure (SMILES),prevention of diarrhea associated with cisplatin [1],prevention of diarrhea associated with 5-fluorouracil plus leucovorin [2],severity and duration of diarrhea [3],treatment of 5-fluorouracil-induced diarrhea ([4]; Meropol et al. 1998),"efficacy in therapy of 5-fluorouracil-induced diarrhea, compared with loperamide ([4]; randomized trial comparing octreotide with loperamide)",frequency of diarrhea [5],severity of diarrhea [5]
"C[C@@H](O)[C@@H]1NC(=O)[C@H](CCCCN)NC(=O)[C@@H](Cc2c[nH]c3ccccc23)NC(=O)[C@H](Cc2ccccc2)NC(=O)[C@@H](NC(=O)[C@H](N)Cc2ccccc2)CSSC[C@@H](C(=O)N[C@H](CO)[C@@H](C)O)NC1=O (relative stereo) [octreotide, L-cysteinamide,D-phenylalanyl-L-cysteinyl-L-phenylalanyl-D-tryptophyl-L-lysyl-L-threonyl-N-[2-hydro-1-hydroxymethyl) propyl]-, cyclic (2→7)-disulfide; [R-(R*,R*)]]",active in preventing diarrhea,does not prevent diarrhea,avoids or remarkably limits the severity and duration of diarrhea in many cases,successful in the treatment of 5-fluorouracil-induced diarrhea,more effective than loperamide,,
CN(C)C(=O)C(CCN1CCC(O)(c2ccc(Cl)cc2)CC1)(c1ccccc1)c1ccccc1 [loperamide],,,,,,had not reduced the frequency of diarrhea,often successful in reducing the severity of diarrhea
